Assay results reported in the supplement of paper PMC11208160.

assay: recombinant UMI read abundance after kanamycin selection (control-corrected) (log10(CPM+1)); higher = more efficient recombination; extreme values may be limits of the assay; sequences stand for … in AGTGCAGAGAAAATCGGCCAGTTTTCTCTGCCTGCAGTCCGCATGCCGTGGGACCCCTTGGGTTCTAACCTGTTGCCTAGATTTATGCAGCGGACTGCCTTTCTCCCAAAGTGATAAACCGG…AGGTTGGTTTCACT; site = the 11-nt donor
Method: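 Pooled E. coli donor-specificity screen for the IS621 bridge recombinase. Each library member carries a reprogrammed 11-nt donor and a full-length LE bridge RNA expressed in cis from the natural promoter, with a paired donor-binding loop (8-nt LDG + 4-nt RDG) and a target-binding loop fixed to T5. It is co-electroporated with a T5 target plasmid; recombinase is induced with 0.07 mM IPTG and recombinants are selected on kanamycin. UMIs are counted as CPM, averaged over two biological replicates and corrected by the unselected control. Molecule = full bridge RNA written as DNA, built from the T5 scaffold: LDG = donor specificity nt 1-8, RDG = reverse complement of nt 8-11.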
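Also: IS621 bridge recombinase in Escherichia coli cells against a fixed T5 target plasmid.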

Sequence | recombinant UMI read abundance (log10)
AAGCACGCATGGACCGGTTTTCCCGGTAATCCGTATTTGGG (site AAGCACACTCC) | 0.0106
AAGCACGCATGGACCGGTTTTCCCGGTAATCCGTATTTGGG (site AAGCACCCTCC) | 0
AAGCACGCATGGACCGGTTTTCCCGGTAATCCGTATTTGGG (site AAGCACGCTAC) | 0.0125
AAGCACGCATGGACCGGTTTTCCCGGTAATCCGTATTTGGG (site AAGCACGCTCA) | 0.0347
AAGCACGCATGGACCGGTTTTCCCGGTAATCCGTATTTGGG (site AAGCACGCTCC) | 0.133
AAGCACGCATGGACCGGTTTTCCCGGTAATCCGTATTTGGG (site AAGCACGCTCG) | 0.00834
AAGCACGCATGGACCGGTTTTCCCGGTAATCCGTATTTGGG (site AAGCACGCTCT) | 0.265
AAGCACGCATGGACCGGTTTTCCCGGTAATCCGTATTTGGG (site AAGCACGCTGC) | 0
AAGCACGCATGGACCGGTTTTCCCGGTAATCCGTATTTGGG (site AAGCACGCTTC) | 0.012
AAGCACGCATGGACCGGTTTTCCCGGTAATCCGTATTTGGG (site AAGCACTCTCC) | 0.0617
AAGCACGCATGGACCGGTTTTCCCGGTAATCCGTATTTGGG (site AAGCAGGCTCC) | 0.0132
AAGCACGCATGGACCGGTTTTCCCGGTAATCCGTATTTGGG (site AAGCATGCTCC) | 0.0182
AAGCACGCATGGACCGGTTTTCCCGGTAATCCGTATTTGGG (site AAGCCCGCTCC) | 0.0231
AAGCACGCATGGACCGGTTTTCCCGGTAATCCGTATTTGGG (site AAGCGCGCTCC) | 0.0213
AAGCACGCATGGACCGGTTTTCCCGGTAATCCGTATTTGGG (site AAGCTCGCTCC) | 0.0309
AAGCACGCATGGACCGGTTTTCCCGGTAATCCGTATTTGGG (site AAGGACGCTCC) | 0.00889
AAGCACGCATGGACCGGTTTTCCCGGTAATCCGTATTTGGG (site AAGTACGCTCC) | 0.0168
AAGCACGCATGGACCGGTTTTCCCGGTAATCCGTATTTGGG (site AATCACGCTCC) | 0.0177
AAGCACGCATGGACCGGTTTTCCCGGTAATCCGTATTTGGG (site ACGCACGCTCC) | 0.0214
AAGCACGCATGGACCGGTTTTCCCGGTAATCCGTATTTGGG (site AGGCACGCTCC) | 0.0204
AAGCACGCATGGACCGGTTTTCCCGGTAATCCGTATTTGGG (site ATGCACGCTCC) | 0.0113
AAGCACGCATGGACCGGTTTTCCCGGTAATCCGTATTTGGG (site CAGCACGCTCC) | 0.00873
AAGCACGCATGGACCGGTTTTCCCGGTAATCCGTATTTGGG (site GAGCACGCTCC) | 0.0379
AAGCACGCATGGACCGGTTTTCCCGGTAATCCGTATTTGGG (site TAGCACGCTCC) | 0.0044

Sequence | recombinant UMI read abundance (log10)
AAGCGGTCATGGACCGGTTTTCCCGGTAATCCGTATTTGTT (site AAGCGGTCTAA) | 1.4
AAGGATACATGGACCGGTTTTCCCGGTAATCCGTATTTGCC (site AAGGATACTGG) | 2.67
AAGGCCCCATGGACCGGTTTTCCCGGTAATCCGTATTTGGT (site AAGGCCCCTAC) | 0.395
AAGGGATCATGGACCGGTTTTCCCGGTAATCCGTATTTGTT (site AAGGGATCTAA) | 2.95
AAGGGCTCATGGACCGGTTTTCCCGGTAATCCGTATTTGGC (site AAGGGCTCTGC) | 3.63
AAGTAGACATGGACCGGTTTTCCCGGTAATCCGTATTTGCA (site AAGTAGACTTG) | 2.72
AAGTAGACATGGACCGGTTTTCCCGGTAATCCGTATTTGCA (site AGGAAGACTTG) | 0.52
AAGTCGACATGGACCGGTTTTCCCGGTAATCCGTATTTGAA (site AAGTCGACTTT) | 0.435
AAGTCGCCATGGACCGGTTTTCCCGGTAATCCGTATTTGGT (site AAGTCGCCTAC) | 0.0178
AAGTGTGCATGGACCGGTTTTCCCGGTAATCCGTATTTGTC (site AAGTGTGCTGA) | 2.99
AAGTTGTCATGGACCGGTTTTCCCGGTAATCCGTATTTGTC (site AAGTTGTCTGA) | 2.09
AATAAAGCATGGACCGGTTTTCCCGGTAATCCGTATTTGGC (site AATAAAGCTGC) | 1.32
AATAAGACATGGACCGGTTTTCCCGGTAATCCGTATTTGCA (site AATAAGACTTG) | 2.17
AATAAGACATGGACCGGTTTTCCCGGTAATCCGTATTTGCA (site AGGAAGACTTG) | 1.4
AATACTTCATGGACCGGTTTTCCCGGTAATCCGTATTTGAG (site AATACTTCTCT) | 1.6
AATAGTACATGGACCGGTTTTCCCGGTAATCCGTATTTGTC (site AATAGTACTGA) | 1.89
AATAGTGCATGGACCGGTTTTCCCGGTAATCCGTATTTGCC (site AATAGTGCTGG) | 1.5
AATATGGCATGGACCGGTTTTCCCGGTAATCCGTATTTGCG (site AATATGGCTCG) | 1.22
AATCAATCATGGACCGGTTTTCCCGGTAATCCGTATTTGCC (site AATCAATCTGG) | 1.98
AATCACGCATGGACCGGTTTTCCCGGTAATCCGTATTTGGG (site AAACACGCTCC) | 0.0181
AATCACGCATGGACCGGTTTTCCCGGTAATCCGTATTTGGG (site AACCACGCTCC) | 0.0334
AATCACGCATGGACCGGTTTTCCCGGTAATCCGTATTTGGG (site AAGCACGCTCC) | 0.0135
AATCACGCATGGACCGGTTTTCCCGGTAATCCGTATTTGGG (site AATCACGCTCC) | 0.0109
AATCCATCATGGACCGGTTTTCCCGGTAATCCGTATTTGAT (site AATCCATCTAT) | 0.288

Sequence | recombinant UMI read abundance (log10)
AATCGAACATGGACCGGTTTTCCCGGTAATCCGTATTTGTC (site AATCGAACTGA) | 0.559
AATCGGACATGGACCGGTTTTCCCGGTAATCCGTATTTGAT (site AATCGGACTAT) | 1.01
AATCTCTCATGGACCGGTTTTCCCGGTAATCCGTATTTGGC (site AATCTCTCTGC) | 2.62
AATCTTGCATGGACCGGTTTTCCCGGTAATCCGTATTTGTC (site AATCTTGCTGA) | 1.07
AATGACCCATGGACCGGTTTTCCCGGTAATCCGTATTTGTT (site AATGACCCTAA) | 0.0112
AATGACTCATGGACCGGTTTTCCCGGTAATCCGTATTTGAG (site AATGACTCTCT) | 2.08
AATGACTCATGGACCGGTTTTCCCGGTAATCCGTATTTGGT (site AATGACTCTAC) | 2.1
AATGCAACATGGACCGGTTTTCCCGGTAATCCGTATTTGTG (site AATGCAACTCA) | 0.302
AATGCACCATGGACCGGTTTTCCCGGTAATCCGTATTTGTG (site AATGCACCTCA) | 0.0217
AATGCAGCATGGACCGGTTTTCCCGGTAATCCGTATTTGAA (site AATGCAGCTTT) | 0.709
AATGGAACATGGACCGGTTTTCCCGGTAATCCGTATTTGCT (site AATGAAACTAG) | 0.482
AATGGAACATGGACCGGTTTTCCCGGTAATCCGTATTTGCT (site AATGCAACTAG) | 1.05
AATGGAACATGGACCGGTTTTCCCGGTAATCCGTATTTGCT (site AATGGAACTAG) | 2.12
AATGGAACATGGACCGGTTTTCCCGGTAATCCGTATTTGCT (site AATGTAACTAG) | 1.78
AATGGATCATGGACCGGTTTTCCCGGTAATCCGTATTTGAA (site AATGGATCTTT) | 2.07
AATGTACCATGGACCGGTTTTCCCGGTAATCCGTATTTGCG (site AATGTACCTCG) | 0.0178
AATGTCACATGGACCGGTTTTCCCGGTAATCCGTATTTGCT (site AATGTAACTAG) | 0.799
AATGTCACATGGACCGGTTTTCCCGGTAATCCGTATTTGCT (site AATGTCACTAG) | 2.41
AATGTCACATGGACCGGTTTTCCCGGTAATCCGTATTTGCT (site AATGTGACTAG) | 0.0645
AATGTCACATGGACCGGTTTTCCCGGTAATCCGTATTTGCT (site AATGTTACTAG) | 0.647
AATGTCTCATGGACCGGTTTTCCCGGTAATCCGTATTTGAC (site AATGTATCTGT) | 1.32
AATGTCTCATGGACCGGTTTTCCCGGTAATCCGTATTTGAC (site AATGTCTCTGT) | 2.21
AATGTCTCATGGACCGGTTTTCCCGGTAATCCGTATTTGAC (site AATGTGTCTGT) | 0
AATGTCTCATGGACCGGTTTTCCCGGTAATCCGTATTTGAC (site AATGTTTCTGT) | 0
